# Source: US6262095A, “Use of tricyclic derivatives of 1,4-dihydro-1,4-dioxo-1H-naphthalene, novel compounds obtained and their application in theraphy” (Laboratoire Innothera, priority 1995, dated 2001)
# Where two headings read alike, the source gives them in different places.
# Experiments:
# [1] = system: capillary resistance of rats; assay: Capillary resistance of rats after oral administration (petechial index); assay type: in vivo, rat (Wistar); conditions: rat
# Protocol: The increase in the capillary resistance is evaluated by the modification of the petechial index (negative pressure inducing the extravasation of the erythrocytes), measured by a method derived from the angiosterrometer of Parrot.
# The studies are carried out on male Wistar rats with an average weight of 200 g (approximate age six weeks). The bottom area of the back is shorn, then the hair is pulled by means of a paste based on a derivative of thioglycolic acid and calcium hydroxide. After approximately 30 min, the skin is abundantly rinsed and dried.
# On the day of the study, the rats are maintained without constraint. A low pressure of 80 mm of mercury is applied. If the petechiae (extravasation of erythrocytes) have not appeared within 15 sec, the low pressure is increased as a countermeasure, keeping the suction cap at the same place.
# The minimum low pressure where petechias appear, in mm of mercury, expresses the basal capillary resistance (before any treatment). Two measurements are made for each test at different sites on of the back.
# The rats are treated by the oral route. […] All the measurements are done in the blind mode.
# A percentage of variation in the capillary resistances of the animals treated compared to their basal capillary resistance is calculated for each compound studied, at each treatment time and compared with the control group (excipient only) or the reference group.
# [2] = system: saphenous vein in rabbits; assay: Contractile effect on the rabbit saphenous vein precontracted by a depolarizing physiological solution (K+ 40 mM); assay type: cell-based; conditions: precontracted with 40 mM potassium; for EC50: read-out: ED50 (the source's name)
# Protocol: The contractile effects are measured in vitro under static conditions on vascular capacitance or resistance rings of saphenous, femoral, jugular, mesenteric, and caval veins . . . and on femoral, carotid, basilar, or mesenteric arteries, as well as the thoracic or abdominal aorta . . . in rats (Wistar, 200-250 g), rabbits (New Zealand, 2-2.5 kg), guinea pigs (Dunkin Hartley 250-300 g).
# The rings are placed in a chamber for isolated organs (25 mL for capacitance vessels and 2.5 mL for resistance vessels according to Mulvany), and maintained under isometric conditions using two rigid threads inserted inside the vessel, avoiding causing damage to the endothelium. The vessels are bathed in a modified Krebs solution (in mM: NaCl=118; KCl=4.6; CaCl2 =2.5; MgSO4 =1.2; KH2 PO4 =1.17; NaHCO3 =25; glucose=11), continuously aerated using a gaseous mixture of 95% O2 and 5% Co2, at a pH=7.4, and regulated by thermostat at 37° C. The rings are adjusted to their optimal point as far as the tension-length relationship is concerned. The tensions developed generate an electrical signal through the intermediary of a force sensor (Wheatstone bridge). […] The pharmacological studies are carried out after a few standardized preliminary contractile stimulations using a depolarizing solution (hyperpotassic type obtained by replacing NaCl with KCl in equimolar quantities), along with rinsings and periods of equilibration in a pure physiological solution. The presence of endothelium is verified by the relaxation induced by increasing the concentration of acetylcholine after the stabilization of a vascular precontraction.
# The forces of contraction developed by the vascular rings in response to the different compounds are studied on quiescent or electrically stimulated vessels (5-8 Hz), by a "physiological" depolarizing hyperpotassic solution (KCl: 20, 40 mM), by noradrenaline (increasing concentrations), [and by] serotonin (increasing concentrations).
# The contractions are expressed in mg force or as a percentage of the maximum contraction at the time of the depolarization with a "physiological" hyperpotassic solution.
# The contractile effect of different compounds on the saphenous vein in rabbits, precontracted by a depolarizing "physiological" solution with a potassium concentration of 40 mM, is given as an illustration; the maximum effect produced by each compound is expressed as a percentage of the maximum contraction induced by depolarizing hyperpotassic solutions and as value of ED50): […]
# [3] = system: hyperpermeability induced by zymosan in rats; assay: Inflammatory hyperpermeability induced by zymosan in rats; assay type: in vivo, rat (Wistar); conditions: rat, oral
# Protocol: The vascular permeability is studied in vivo by measuring the extravasation of albumin, the quantity of which is determined using an albumin-binding dye (Evans blue).
# The hyperpermeability is induced by the intradermal injection of a solution of histamine, bradykinin, or zymosan.
# The abdominal walls of the rats (Wistar, 200-230 g) are shorn 1 h before the start of the experiment. The product to be tested is injected by the intraperitoneal route or orally 1-4 h before the sacrifice. The rats are anesthetized with a halothane mixture. They then receive an intradermal injection in their abdomen of 0.10 or 0.15 mL (or for histamine 6.7 or […]) of inflammatory agent and an intravenous injection of 1 mL of 0.5% Evans blue solution in the vein of the penis. These injections are carried out 30 min before the sacrificing.
# 30 min after these two injections, the rats are sacrificed by cervical dislocation.
# At the site of the injection of the inflammatory agent, the skin is cut and placed into glass tubes with a ground[-glass] neck containing 3 mL of fuming hydrochloric acid. […] After allowing the preparation to stand for 30 min, 7 mL of dichloromethane are added. The tubes are periodically agitated for 1 h. The aqueous phase is eliminated by aspiration, and the organic "dichloromethane" phase is filtered. The optical densities are quantified by absorption spectrophotometry at a wavelength of 620 nm, against a blank [control] containing only dichloromethane. The averages of the optical densities of the different lots of treated or control animals are calculated, then a percentage of variation of the values corresponding to the treated [experimental] animals compared to those of the control animals is calculated.
# [4] = system: mice; assay: Single oral administration toxicity in mice; assay type: in vivo, mouse
# Source text: Moreover, the compounds of the invention and their possible salts have a very low toxicity.
# [5] = Oryctolagus cuniculus, % of maximum contraction induced by hyperpotassic solutions
# [6] = 0.1 mg/kg, ** granulometry: 0.6-0.7 mm
# [7] = single oral administration of 500 mg/kg
EC50 ([2]; Oryctolagus cuniculus) [µM],Molecule,"Emax [2, 5] [%]","Zymosan-induced hyperpermeability, effect after 2 h ([3]; 0.1 mg/kg)","Zymosan-induced hyperpermeability, effect after 4 h ([3]; 0.1 mg/kg)",also measured
0.088,"O=C1c2ccccc2C(=O)c2sc(-c3ccoc3)nc21 [Example 18, 4,9-Dihydro-4,9-dioxo-2-(3-furyl)naphtho[2,3-d]thiazole]",39 ± 6,–,–,"Increase of capillary resistance, effects after 4 h ([1]; 5 mg/kg): 25 % of the control; Increase of capillary resistance, effect after 6 h ([1]; 5 mg/kg): 28 % of the control"
0.037,"O=C1c2ccccc2C(=O)c2sc(-n3cccc3)nc21 [Example 28, 4,9-Dihydro-4,9-dioxo-2-(1-pyrrolyl)-naphtho-[2,3]-thiazole]",29 ± 2,–,–,"Increase of capillary resistance, effects after 4 h [1, 6]: 10 % of the control; Increase of capillary resistance, effect after 6 h [1, 6]: 13 % of the control; Zymosan-induced hyperpermeability, effect after 2 h ([3]; 5 mg/kg): -29 % of the control; Zymosan-induced hyperpermeability, effect after 4 h ([3]; 5 mg/kg): 0 % of the control"
0.036,"Cc1cccc(-c2nc3c(o2)C(=O)c2ccccc2C3=O)c1 [Example 7, 4,9-Dihydro-4,9-dioxo-2-(3-methylphenyl)-naphtho[2,3-d]oxazole]",17 ± 2,–,–,–
–,"O=C1c2ccccc2C(=O)c2oc(-c3ccc(F)cc3)nc21 [Example 5, 4,9-Dihydro-4,9-dioxo-2-(4-fluorophenyl)-naphtho[2,3-d]oxazole]",–,–,–,"toxic effect and mortality [4, 7]: no observable toxic effect and no mortality"
–,"O=C1c2ccccc2C(=O)c2oc(-c3ccc(Cl)cc3)nc21 [Example 10, 2-(4-Chlorophenyl)-4,9-dihydro-4,9-dioxo-naphtho[2,3-d]oxazole]",–,–,–,"Increase of capillary resistance, effects after 4 h ([1]; 0.1 mg/kg): 25 % of the control; Increase of capillary resistance, effect after 6 h ([1]; 0.1 mg/kg): 46 % of the control"
0.07,"O=C1c2ccccc2C(=O)c2sc(-c3ccccn3)nc21 [Example k, 4,9-Dihydro-4,9-dioxo-2-(2-pyridyl)-naphtho[2,3-d]thiazole]",26 ± 9,–,–,–
0.16,"Cc1ccc(-c2nc3c(s2)C(=O)c2ccccc2C3=O)o1 [Example 38, 4,9-Dihydro-4,9-dioxo-2-(5-methyl-2-furyl)naphtho-[2,3-d]thiazole]",12 ± 1,-12 % of the control,-3 % of the control,–
–,"Cc1ccccc1-c1nc2c(o1)C(=O)c1ccccc1C2=O [Example 6, 4,9-Dihydro-4,9-dioxo-2-(2-methylphenyl)-naphtho[2,3-d]oxazole]",–,–,–,"toxic effect and mortality [4, 7]: no observable toxic effect and no mortality"
–,"O=C1c2ccccc2C(=O)c2[nH]c(-c3ccccc3F)nc21 [Example 2, 4,9-Dihydro-4,9-dioxo-2-(2-fluorophenyl)-1H-naphtho[2,3-d]imidazole]",–,–,–,"Increase of capillary resistance, effects after 4 h ([1]; 0.1 mg/kg): 25 % of the control; Increase of capillary resistance, effect after 6 h ([1]; 0.1 mg/kg): 28 % of the control"
–,"O=C1c2ccccc2C(=O)c2sc(-c3ccc(F)cc3)nc21 [Example 14, 4,9-Dihydro-4,9-dioxo-2-(4-fluorophenyl)naphtho[2,3-d]thiazole]",–,-31 % of the control,-15 % of the control,–
0.053,"COc1ccc2c(c1)C(=O)c1sc(-c3ccco3)nc1C2=O [Example 59, 4,9-Dihydro-4,9-dioxo-2-(2-furyl)-7-methoxynaphtho-[2,3-d]thiazole]",18 ± 4,-13 % of the control,+21 % of the control,–
–,"O=C1c2ccccc2C(=O)c2sc(-c3ccc(F)cc3F)nc21 [Example 15, 2-(2,4-Difluorophenyl)-4,9-dihydro-4,9-dioxo-naphtho[2,3-d]thiazole]",–,–,–,"Increase of capillary resistance, effects after 4 h ([1]; 0.1 mg/kg): 20 % of the control; Increase of capillary resistance, effect after 6 h ([1]; 0.1 mg/kg): 27 % of the control"
–,"COc1ccc2c(c1)C(=O)c1nc(-c3ccccc3)sc1C2=O [Example 26, 4,9-Dihydro-4,9-dioxo-6-methoxy-2-phenylnaphtho[2,3-d]thiazole]",–,-14 % of the control,-24 % of the control,–
0.09,"Nc1nc2c(s1)C(=O)c1ccccc1C2=O [Example i, 2-Amino-4,9-dihydro-4,9-dioxonaphtho[2,3-d]thiazole]",18 ± 1,–,–,–
–,"4,9-Dihydro-4,9-dioxo-2-(2-furyl)-5-hydroxynaphtho-[2,3-d]thiazole or 4,9-Dihydro-4,9-dioxo-2-(2-furyl)-8-hydroxynaphtho-[2,3-d]thiazole [Example 57]",–,–,–,Emax (% maximum contraction) ([2]; % of maximum contraction induced by hyperpotassic solutions): 22±3 % maximum contraction; EC50 [2]: 0.041 µM
–,"COc1ccc2c(c1)C(=O)c1sc(-c3ccccc3)nc1C2=O [Example 25, 4,9-Dihydro-4,9-dioxo-7-methoxy-2-phenylnaphtho[2,3-d]thiazole]",–,-14 % of the control,-17 % of the control,–
0.075,"O=C1c2ccccc2C(=O)c2sc(-c3ccc(Cl)o3)nc21 [Example 19, 2-(5-Chloro-furan-2-yl)-4,9-dihydro-4,9-dioxo-naphtho[2,3-d]thiazole]",20 ± 8,–,–,–
–,"Cc1nc2c(n1C)C(=O)c1ccccc1C2=O.O=S(=O)(O)O [Example 1, 4,9-Dihydro-4,9-dioxo-1,2-dimethyl-1H-naphtho[2,3-d]imidazole sulfate]",–,–,–,"Increase of capillary resistance, effects after 4 h ([1]; 0.1 mg/kg): 37 % of the control; Increase of capillary resistance, effect after 6 h ([1]; 0.1 mg/kg): 35 % of the control; Zymosan-induced hyperpermeability, effect after 2 h ([3]; 5 mg/kg): -28 % of the control; Zymosan-induced hyperpermeability, effect after 4 h ([3]; 5 mg/kg): -28 % of the control"
–,"O=C1c2ccccc2C(=O)c2sc(-c3ccncc3)nc21.O=S(=O)(O)O [Example 17, 4,9-Dihydro-4,9-dioxo-2-(4-pyridyl)-naphtho[2,3-d]thiazole sulfate]",–,-15 % of the control,-23 % of the control,–

Molecule,EC50 ([2]; Oryctolagus cuniculus) [µM],"Emax [2, 5] [%]","Zymosan-induced hyperpermeability, effect after 2 h ([3]; 0.1 mg/kg)","Zymosan-induced hyperpermeability, effect after 4 h ([3]; 0.1 mg/kg)",also measured
"O=C1c2ccccc2C(=O)c2sc(-c3cccc(F)c3)nc21 [Example 13, 4,9-Dihydro-4,9-dioxo-2-(3-fluorophenyl)-naphtho[2,3-d]thiazole]",0.057,21 ± 3,–,–,"toxic effect and mortality ([4]; single oral administration, 1 g/kg): no observable toxic effect and no mortality"
